The source of these data is US20040242461A1, “Modulators of telomere stability” (priority 2003, published 2004).

“Also recorded” adds a separate entry of the source.

For one series, the target named is T1, HGK (Homo sapiens, UniProt O95819).
T1 construct: expressed in transfected cells
In words: HGK immune complex kinase assay (recombinant FLAG-HGK in cardiomyocytes). The note with it: for HGK activity after agonist: 50 μg/ml C2-ceramide, 200 μM H2O2. In kind it is cell-based. The text has this: HGK was alternatively spliced, with the presence or absence of an SH3-like domain being one potentially important difference. […] Dominant-negative, FLAG-tagged JNK1 (JNK1 APF). Viruses were engineered using pAd-Easy-1 and pShuttleCMV. Adenoviruses encoding wild-type and dominant-negative TRF2 were constructed analogously (Oh et al., 2003), using cDNAs.
For HGK immune complex kinase assays, recombinant HGK was precipitated using M2 antibody and protein G-Sepharose, in the lysis buffer above. Precipitates were washed twice in lysis buffer, twice with 500 mM LiCl, 100 mM Tris-HCl, pH 7.6, 0.1% Triton X-100, and twice with kinase buffer (20 mM MOPS, pH 7.6, 2 mM EGTA, 10 mM MgCl2, 1 mM dithiothreitol, 0.1% Triton X-100, 1 mM Na3VO4), then were mixed with 10 μg of myelin basic protein (MBP) (Invitrogen, Carlsbad, Calif.), as substrate, 15 μM ATP, and 10 μCi [γ-^32P]ATP in 30 μl of kinase buffer for 30 min at 30° C. (Yao et al., 1999). Reaction mixtures were resolved by SDS-polyacrylamide gel electrophoresis, then were analysed by autoradiography and Western blotting as above.

Series [1] concerns poly (ADP-ribose) polymerase (PARP). The series can be described thus: PARP cleavage by Western blot after antisense transfection of mouse cardiomyocytes. The series is classed as cell-based. As to conditions: reduction of endogenous TRF2. An excerpt: (§1) The sequences used were: antisense TRF2 (asTRF2), 5′-[…]-3′ (SEQ ID NO:21); sense TRF2 (sTRF2), 5′-[…]-3′ (SEQ ID NO:22), antisense GFP (Sano, M. et al., 2002), 5′-[…]-3′ (SEQ ID NO:23). Oligonucleotides were transfected into 1-2 day-old C57BI/6 mouse cardiomyocytes, cultured as above, using Oligofectamine (Invitrogen).
(§2) Proteins were resolved by electrophoresis in 10% SDS-polyacrylamide gels and transferred to membranes by electroblotting. Antibodies were: human and mouse TRF2 (Calbiochem), human and mouse TRF1 (Calbiochem), phospho-Chk2 (Thr68; Cell Signaling), sarcomeric a-actin and myc (Sigmna), FLAG epitope (M2, Kodak), GFP (Clontech), Chk2 (Santa Cruz), poly (ADP-ribose) polymerase (PARP, Oncogene). To detect exogenous TRF2 in virus infected cardiomyocytes, goat and rabbit antibodies to TRF2 were used (C-16, H-300, Santa Cruz); endogenous rat TRF2 was detected using rabbit antibody to TRF2 (Alpha Diagnostic International). After blocking with 5% non-fat milk plus 0.1% Tween-20, blots were incubated with primary antibodies (1:500), horseradish peroxidase-conjugated secondary antibodies (1:3000; Amersham Pharmacia Biotech), and enhanced chemiluminescence reagents (Amersham Pharmacia Biotech).
(In western blotting, separated proteins are transferred to a membrane and probed.)

Series [2] has as its system TRF2. The series can be described thus: Endogenous TRF2 expression in NIH 3T3 cells after antisense oligonucleotide. The series is classed as cell-based, mouse. As to conditions: NIH 3T3 cells (not shown).
Series [3] concerns telomere length. The series can be described thus: Telomere length by Southern blot after antisense transfection of mouse cardiomyocytes. The note with it: reduction of endogenous TRF2. In kind it is cell-based.
Text: as §1
(§3) DNA was digested with Rsa I, resolved by electrophoresis in 0.5% agarose, transferred to Hybond-N^+ membranes (Amersham Pharmacia Biotech), and hybridized using a ^32P-labeled (TTAGGG)4 telomeric probe (Oh, H. et al., 2001; Counter, C. M., 1992). Mean telomere length was ascertained by Phosphor-Imager scanning (Molecular Dynamics).

Series [4] relates to C57BI/6 mouse cardiomyocytes. In words: Apoptosis by flow cytometry after antisense transfection of mouse cardiomyocytes. The series is classed as cell-based. As to conditions: reduction of endogenous TRF2.
Text: as §1
Hypodiploid DNA was detected by two-color flow cytometry using propidium iodide for DNA content and FITC-conjugated MF20 (Oh, H. et al., 2001; Akli, S. et al., 1999) or FITC-conjugated antibody to sarcomeric myosin heavy chains to confirm myocyte identity, sampling>5000 myocytes for each histogram.
Background: Flow cytometry measures light scatter and fluorescence of single cells or particles in a stream.

Series [5] concerns TRF2. In words: Western blot of TRF2 after antisense oligonucleotide transfection of mouse cardiomyocytes. In kind it is cell-based. As to conditions: Oligofectamine transfection.
Text: as §1, §2

In another series the test system is Chk2. The series can be described thus: Chk2 immune complex kinase assay after antisense transfection of mouse cardiomyocytes. In kind it is cell-based. The note with it: reduction of endogenous TRF2. As for the experimental part: as §1
To assay Chk2 activity, samples were lysed in 20 mM Tris-HCl (pH 8.0), 0.1% Triton X-100, 10 mM NaF, 1 mM NaVa3VO4, […], 1 mM PMSF, then incubated for 1 hr with antibody to Chk2 and protein A/G-Sepharose (Pharmacia). lmrunoprecipitates were washed and assayed in the presence of 30 μM CHKtide substrate peptide ([…] (SEQ ID NO:24), Upstate Biotechnology, Inc), 40 μM adenosine triphosphate, 15 μCi [γ-^32P]ATP, for 30 min at 30° C. Proteins were resolved by electrophoresis in SDS-polyacrylamide gels and visualized by autoradiography. Aliquots of Chk2 immunoprecipitates were also used for Western blotting, allowing activity and content to be compared in the same samples.

The test system of series [6] is poly (ADP-ribose) polymerase (PARP). In words: PARP cleavage / total PARP by Western blot in cultured cardiomyocytes. In kind it is cell-based, rat.
Text: as §2
Cells were lysed in 20 mM HEPES, pH 7.4, 2 mM EGTA, 50 mM glycerophosphate, 1% Triton X-100, 10% glycerol, 1 mM dithiothreitol, 2 μg/ml leupeptin, 5 μg/ml aprotinin, 1 mM phenylmethylsulfonyl fluoride, 1 mM Na3VO4. Lysates were resolved by SDS-polyacrylamide gel electrophoresis and transferred to optitran (Schleicher & Schuell, Keene, N.H.) membranes for Western blotting. […]

Series [7] concerns telomere length. The series can be described thus: Telomere length by Southern blot with telomeric probe in cultured cardiomyocytes. In kind it is cell-based, rat. The note with it: gene transfer or treatment.
Text: as §3

The test system of series [8] is TRF2. In words: Western blot of TRF2 protein levels in cultured cardiomyocytes. In kind it is cell-based, rat.
Text: Ventricular myocytes from 2 day-old Sprague-Dawley rats were purified and cultured (Oh, H. et al., 2001; Akli, S. et al., 1999); by this age, ventricular myocytes become refractory to serum-induced Gl exit, after initial serum-starvation in vitro (Akli, S. et al., 1999). Plasmids for human TRF1, TRF2, and the corresponding dominant-negative truncations (TRF1DM, TRF2DBDM) were provided by Dr. Titia de Lange (Rockefeller University) (Karlseder, J. et al., 1999). Adenoviruses coexpressing enhanced green fluorescent protein (eGFP) were generated using pAdTrack-cytomegalovirus (CMV) and pShuttle-CMV (provided by Dr. Bert Vogelstein, Johns Hopkins Oncology Center) (Oh, H. et al., 2001; He, T. C., 1998). Myocytes were infected using a multiplicity of infection of 20. To visualize TRF1/2 after gene transfer, myocytes were fixed in 70% ethanol, then incubated sequentially with tetramethyl rhodamine isothiocyanate-conjugated MF-20 antibody to sarcomeric myosin heavy chains to confirm cell type (University of Iowa Hybridoma Bank), rabbit antibodies to TRF1 and TRF2 (#581420 and 581425; 1:500, Calbiochem) and fluorescein isothiocyanate (FITC)-conjugated goat antibody to rabbit IgG (1:1000, Sigma). Nuclei were stained with 4′,6-diamidino-2-phenylindole (DAPI). Images were captured using a Zeiss Axioplan 2 epifluorescence microscope.
as §2, with “After blocking with 5% non-fat milk plus 0.1% Tween-20, blots were incubated with primary antibodies (1:500), horseradish peroxidase-conjugated secondary antibodies (1:3000; Amersham Pharmacia Biotech), and enhanced chemiluminescence reagents (Amersham Pharmacia Biotech).” left out

For another series, the system named is cardiomyocytes. In words: Apoptosis as hypodiploid DNA by two-color flow cytometry in cultured cardiomyocytes. In kind it is cell-based, rat.
Series [9] deals with αMHC-TRF2 mice and non-transgenic littermates. In words: Doxorubicin cardiomyopathy in αMHC-TRF2 mice and non-transgenic littermates. The note with it: 15 mg/kg intraperitoneally. As to the method: Cardiac-specific transgenic mice were created by subcloning the TRF2 and dnTRF2 cDNAs behind the 5.5 kb mouse αMHC promoter (Subramaniam et al., 1991). The resultant plasmids were injected into the pronuclei of fertilized FVB/N oocytes, and tail DNA was used to screen for inheritance of the transgenes. Doppler and M-mode echocardiography were performed as described (Oh et al., 2003; and Minamino et al., 2002).
To test for cardiac protection, 10-12 week-old αLMHC-TRF2 mice (n=14) and non-transgenic littermates (n=14) were injected intraperitoneally with 15 mg/kg doxorubicin.

[10] abbreviates: cultured cardiomyocytes, gene transfer or treatment.

T1 sequence (O95819 whole entry): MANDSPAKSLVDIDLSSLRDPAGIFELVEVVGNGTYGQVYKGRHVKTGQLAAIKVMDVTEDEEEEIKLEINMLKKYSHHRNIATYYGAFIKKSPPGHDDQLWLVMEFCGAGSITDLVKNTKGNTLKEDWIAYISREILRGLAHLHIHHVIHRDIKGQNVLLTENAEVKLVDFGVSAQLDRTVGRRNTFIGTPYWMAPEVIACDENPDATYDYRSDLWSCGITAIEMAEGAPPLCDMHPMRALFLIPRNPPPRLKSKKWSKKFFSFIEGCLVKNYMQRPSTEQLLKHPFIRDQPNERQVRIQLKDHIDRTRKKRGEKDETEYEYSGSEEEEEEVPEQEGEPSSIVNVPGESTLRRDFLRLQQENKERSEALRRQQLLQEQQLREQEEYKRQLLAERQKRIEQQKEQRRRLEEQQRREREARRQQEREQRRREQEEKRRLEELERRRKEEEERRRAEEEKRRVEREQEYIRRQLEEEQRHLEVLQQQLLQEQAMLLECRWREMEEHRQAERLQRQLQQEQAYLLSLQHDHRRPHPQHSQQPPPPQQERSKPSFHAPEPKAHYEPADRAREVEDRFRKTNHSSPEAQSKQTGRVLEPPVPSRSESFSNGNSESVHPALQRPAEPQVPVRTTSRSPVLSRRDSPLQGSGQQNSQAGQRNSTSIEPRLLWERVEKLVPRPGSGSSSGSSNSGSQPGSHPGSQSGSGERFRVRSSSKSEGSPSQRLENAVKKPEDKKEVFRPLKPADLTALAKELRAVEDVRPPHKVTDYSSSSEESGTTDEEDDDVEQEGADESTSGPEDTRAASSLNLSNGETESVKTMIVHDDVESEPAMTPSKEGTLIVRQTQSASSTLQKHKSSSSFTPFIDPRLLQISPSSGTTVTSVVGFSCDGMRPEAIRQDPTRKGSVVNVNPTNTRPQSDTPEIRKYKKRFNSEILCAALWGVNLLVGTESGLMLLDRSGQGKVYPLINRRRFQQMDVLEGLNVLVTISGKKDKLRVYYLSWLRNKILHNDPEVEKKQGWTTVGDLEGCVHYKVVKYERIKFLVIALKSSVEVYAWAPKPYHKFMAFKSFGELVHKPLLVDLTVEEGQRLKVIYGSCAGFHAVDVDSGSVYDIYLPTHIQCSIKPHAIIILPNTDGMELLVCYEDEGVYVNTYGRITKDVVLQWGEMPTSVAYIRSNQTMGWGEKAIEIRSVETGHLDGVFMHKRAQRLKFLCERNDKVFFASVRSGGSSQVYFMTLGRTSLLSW

In the case of “5′-CCTGGGCTGCCGGCTCGAGC-3′ (all phosphorothioate, sugars by position and methylation of C not given here) [antisense TRF2]”, in the series with HGK (antisense suppression of endogenous TRF2, antisense GFP as control), the “induction of HGK activity” value is reported as “more than 50%”. In addition, the “increase of HGK kinase activity” value with HGK (mouse cardiomyocytes, antisense oligo transfection, HGK adenovirus) was 1.5 fold. In series [1], the PARP cleavage entry is listed as “PARP cleavage”. Moreover, the “endogenous TRF2 expression” value with TRF2 [2] was “inhibited endogenous TRF2 expression effectively”. For the same compound, in the series with telomere length [3], the telomere shortening entry is reported as “telomere shortening”. The apoptosis entry in series [4] is listed as “apoptosis”. The TRF2 protein level entry in the series on TRF2 [5] is reported as “specifically reduced”. In the series with Chk2, the Chk2 activation entry is “Chk2 activation”.

Turning to `OO` [H2O2], the “HGK activity after agonist” value at HGK is given as “activated”. Moreover, the PARP cleavage entry in [6] (setting [10]) is on record as “induced”. Further, in the series with telomere length [7], the “telomere erosion / shortening” value is “induced”. For the same compound, in the series on TRF2 [8] (cardiomyocytes, 100 μM H2O2), the “time to decrease of endogenous TRF2” value was at most 2 h. Moreover, the “apoptosis (hypodiploid DNA)” value with cardiomyocytes (setting [10]) was “induced”.

As for `CCCCCCCCCCCCC/C=C/[C@@H](O)[C@H](CO)NC(C)=O` [ceramide, N-acetyl-D-sphingosine], the “HGK activity after agonist” value on HGK is reported as “activated further; also recorded: potent activator of HGK”. For the same compound, the TRF2 levels result with TRF2 [8] (viral delivery or ceramide treatment) is on record as “reduced TRF2 levels”. The “increase in hypodiploid myocytes” value with cardiomyocytes (ceramide treatment) came out at 20 fold.

For `COc1cccc2c1C(=O)c1c(O)c3c(c(O)c1C2=O)C[C@@](O)(C(=O)CO)C[C@@H]3O[C@H]1C[C@H](N)[C@H](O)[C@H](C)O1` [doxorubicin], the “time until loss of PARP (caspase-3 activation) was comparable to the TRF2 loss” value in series [6] (cardiac myocytes, 1 μM doxorubicin) was 48 h. Besides, the “survival as of day 16” value in series [9] (littermate controls) is recorded as 7%; in series [9] (αMHC-TRF2 mice), 36%. For the same compound, the “mice that had died by 7 days after injection” value in series [9] (non-transgenic mice, n=14) is recorded as 63%. The “deaths by 7 days after injection” value in [9] (αMHC-TRF2 mice, n=14) is “no deaths”. The “TRF2 protein expression decreased” value in the series on TRF2 [8] (cardiac myocytes, 1 μM doxorubicin, within 8 hr) came to 50%. The “induction of cardiac myocyte apoptosis (hypodiploid myocytes)” value in the series on cardiomyocytes (doxorubicin administered to myocytes) is reported as “induced cardiac myocyte apoptosis”.
